According to US20260308149A1, “NOVEL CARBOXAMIDE DERIVATIVES” (ANGELINI PHARMA S.P.A., priority 2023, published 2026):

Target: T1, human Kv7.2 (Homo sapiens, UniProt O43526)
T1 construct: expressed in transfected cells
Assay: activation (potentiation) of Kv7.2 current, SyncroPatch 384 electrophysiology in CHO cells stably expressing human Kv7.2
Format: cell-based
Conditions: human Kv7.2 in CHO cells; in presence of 5.6 μM zinc pyrithione; % activation relative to 30 μM ML-213
Protocol: The potency of Kv7 potentiators was determined using the SyncroPatch 384 (Nanion) high throughput electrophysiology platform.
CHO cells stably expressing either human Kv7.2, Kv7.4 or Kv7.5/7.3 under a constitutive CMV promoter were used for these studies. Cells were maintained in F12 Hams+1 mM L-glutamine (Hyclone) supplemented with 10% FBS (Sigma), 0.3×NEAA (Non-essential Gamino-acids) and 400 ug/ml G418 at 37° C. in 5% CO2. Cells were cultured in T-225 flasks (Nunc) for 2-3 days to reach 85-95% confluence prior to electrophysiological recording.
Earle's balanced salt solution (in mM): 135 NaCl, 5.4 KCl, 5 Glucose, 2 CaCl2), 1 MgCl2, 5 HEPES, pH 7.4. Seal enhancer solution (in mM): 90 NaCl, 3 KCl, 35 CaCl2), 10 MgCl2, 10 HEPES, pH 7.4. Extracellular recording solution (in mM): 71 NaCl, 70 NMDG, 13 KCl. 5 Glucose, 2 CaCl2, 1 MgCl2, 10 HEPES, pH 7.4. Intracellular recording solution (in mM): 130 KF, 20 KCl, 4 EGTA, 10 HEPES, 2 EDTA, 0.01 Escin, pH 7.2.
Cells were harvested for electrophysiological recording upon reaching appropriate confluence. Cells were first washed in DPBS (Hyclone, Cat #SH30028.03) and then 2 ml of Accutase (MP Biomedicals #1000449) was added at 28° C. until ~90% of cells were suspended. F12 HAM's media+1 mM L-glutamine (Hyclone, SH30026.02) was then added to the flask to dilute the accutase. Cells were then triturated until a single cell suspension was achieved, a cell count was performed, and cells were centrifuged for 2 min. at 1,000 rpm. Media was then aspirated, and cells were resuspended in Earle's balanced salt solution to a concentration of 0.75×10^6 cells/ml and allowed to recover for 25 min at 10° C.
At the beginning of each assay, 20 μl of cell suspension was dispensed into each well of a multi-hole 384-well SyncroPatch chip by the onboard pipettor. Cell sealing was initiated, and seal enhancer solution was added to facilitate seal formation. Upon completion of sealing, cells were washed 3 times with extracellular recording solution and the assay voltage protocol was started. Human Kv7.2, Kv7.4 or Kv7.5/7.3 channels were evaluated using a voltage protocol in which cells were voltage-clamped at a holding potential of −60 mV. Potassium currents were continuously activated with a series of three voltage steps to −30 mV for 3 seconds, 40 mV for 1 second and −90 mV for 4 seconds with 12 seconds between successive voltage sweeps. Potassium currents were measured from the −90 mV repolarizing step. Baseline current was assessed for 3.5 minutes prior to the addition of 5.6 μM zinc pyrithione (1 μM for Kv7.4). Kv7.2, Kv7.4 or Kv7.5/7.3 current in the presence of zinc pyrithione was acquired over five minutes to allow channels to reach steady state activity prior to addition of test agents. Channel activity was monitored for three minutes preceding the addition of 30 μM ML-213 (3 minutes) to achieve maximum activation. 150 mM TEA with 10 μM XE-991 was applied for 2 minutes to measure the leak current during maximum inhibition of Kv7.2, Kv7.4 or Kv7.5/7.3 channels.
Data were collected on the SyncroPatch platform using PatchControl software (Nanion) and processed and analyzed using DataControl Software (Nanion). Percent activation was calculated from potassium current as follows: The average current for the 5 sweeps in the presence of zinc pyrithione immediately preceding test agent addition was taken as the ‘control’ data. Likewise, the average potassium current in the presence of test agents 5 sweeps immediately preceding addition of 30 μM ML-213 was determined for ‘drug’ data. The average potassium current 5 sweeps immediately prior to addition of 150 mM TEA+10 μM XE-991 was determined for ‘max activation’ data while average currents from 5 sweeps immediately following addition of TEA was determined for ‘max inhibition’ data. Percent activation for each of the 384-wells of a sealchip was calculated as ((‘drug’−‘max inhibition’)/(‘max activation’−‘max inhibition’))*100 with Pipeline Pilot (Accelrys). […]

T1 sequence (O43526 whole entry): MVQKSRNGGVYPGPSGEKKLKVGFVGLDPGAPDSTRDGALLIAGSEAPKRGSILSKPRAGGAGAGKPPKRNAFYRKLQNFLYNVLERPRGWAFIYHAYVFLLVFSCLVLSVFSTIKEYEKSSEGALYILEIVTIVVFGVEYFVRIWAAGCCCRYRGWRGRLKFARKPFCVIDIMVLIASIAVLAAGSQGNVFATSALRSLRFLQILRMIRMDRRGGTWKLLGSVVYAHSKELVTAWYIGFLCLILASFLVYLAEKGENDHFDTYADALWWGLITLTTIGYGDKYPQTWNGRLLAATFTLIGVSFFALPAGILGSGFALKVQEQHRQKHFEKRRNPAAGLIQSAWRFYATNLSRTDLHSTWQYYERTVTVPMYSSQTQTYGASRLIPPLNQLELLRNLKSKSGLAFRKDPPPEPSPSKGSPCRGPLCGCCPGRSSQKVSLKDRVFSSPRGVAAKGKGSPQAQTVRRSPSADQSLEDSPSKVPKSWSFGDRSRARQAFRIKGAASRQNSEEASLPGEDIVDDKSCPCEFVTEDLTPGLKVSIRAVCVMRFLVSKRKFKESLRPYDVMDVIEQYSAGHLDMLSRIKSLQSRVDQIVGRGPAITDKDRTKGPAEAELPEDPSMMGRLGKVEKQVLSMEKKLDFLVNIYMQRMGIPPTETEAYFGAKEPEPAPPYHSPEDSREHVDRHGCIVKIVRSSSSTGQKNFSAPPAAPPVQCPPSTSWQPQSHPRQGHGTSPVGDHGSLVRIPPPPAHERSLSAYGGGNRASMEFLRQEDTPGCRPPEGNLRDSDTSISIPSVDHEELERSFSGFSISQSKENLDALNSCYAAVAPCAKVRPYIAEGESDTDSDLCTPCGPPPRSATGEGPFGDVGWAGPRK

SMILES | EC50 [nM]
N#CCOC(CNC(=O)CC1CCCC1)c1cccc(Cl)c1 (centres unmarked) [Example 73, N-[2-(3-chlorophenyl)-2-(cyanomethoxy)ethyl]-2-cyclopentyl-acetamide] | 2000
O=C(NCC1(c2cccc(OC(F)F)n2)CCO1)[C@H]1C[C@@H]1C(F)(F)F (stereo partly drawn) [Example 130, (1S,2S)—N-[[2-[6-(difluoromethoxy)-2-pyridyl]oxetan-2-yl]methyl]-2-(trifluoromethyl)cyclopropanecarboxamide] | 680
CO[C@@](C)(CNC(=O)[C@@H]1C[C@H]1C1CCCC1)c1cccc(Cl)c1 (mixture of isomers) [Example 80, (1RS,2SR)—N-[(2R)-2-(3-chlorophenyl)-2-methoxy-propyl]-2-cyclopentyl-cyclopropanecarboxamide] | 220
O=C(NC/C(=C/CO)c1cccc(Cl)c1)[C@H]1C[C@@H]1c1ccccc1 [Example 77, (1S,2S)—N-[(E)-2-(3-chlorophenyl)-4-hydroxy-but-2-enyl]-2-phenyl-cyclopropanecarboxamide] | 340
N#Cc1cccc([C@]2(CNC(=O)[C@H]3C[C@@H]3C3CC(F)(F)C3)CCO2)c1 (mixture of isomers) [Example 127, (1SR,2RS)—N-[[(2S)-2-(3-cyanophenyl)oxetan-2-yl]methyl]-2-(3,3-difluorocyclobutyl)cyclopropanecarboxamide] | 1040
N#Cc1cccc([C@@]2(CNC(=O)CC3CCCCCC3)CCO2)c1 [Example 94, N-[[(2R)-2-(3-cyanophenyl)oxetan-2-yl]methyl]-2-cycloheptyl-acetamide] | 5620
N#CCO[C@H](CNC(=O)[C@H]1C[C@@H]1c1ccccc1)c1cccc(Cl)c1 [Example 70, (1S,2S)—N-[(2S)-2-(3-chlorophenyl)-2-(cyanomethoxy)ethyl]-2-phenyl-cyclopropanecarboxamide] | 650
N#Cc1cccc([C@]2(CNC(=O)C3C(F)(F)C34CCC4)CCO2)c1 (stereo partly drawn) [Example 96, N-[[(2S)-2-(3-cyanophenyl)oxetan-2-yl]methyl]-2,2-difluoro-spiro[2.3]hexane-1-carboxamide] | 8540

Continued by falling EC50, values first:

EC50 [nM] | SMILES
3190 | O=C(CC1CCCCC1)N[C@H]1C[C@H](c2cccc(Cl)c2)C1 [Example 56, N-[3-(1r,3r)-(3-chlorophenyl)cyclobutyl]-2-cyclohexyl-acetamide]
2820 | O=C(NCC1(c2cccc(OC(F)F)n2)CCO1)C1CC12CCOCC2 (centres unmarked) [Example 115, N-[[2-[6-(difluoromethoxy)-2-pyridyl]oxetan-2-yl]methyl]-6-oxaspiro[2.5]octane-2-carboxamide]
1810 | O=C(NCC(CCO)c1cccc(Cl)c1)[C@H]1C[C@@H]1c1ccccc1 (stereo partly drawn) [Example 92, (1S,2S)—N-[2-(3-chlorophenyl)-4-hydroxy-butyl]-2-phenyl-cyclopropanecarboxamide]
1140 | N#Cc1cccc(C2(CNC(=O)[C@H]3C[C@@H]3c3ccccc3)COC2)c1 [Example 85, (1S,2S)—N-[[3-(3-cyanophenyl)oxetan-3-yl]methyl]-2-phenyl-cyclopropanecarboxamide]
550 | COC(C)(CNC(=O)NCC1CCCC1)c1cccc(Cl)c1 (centres unmarked) [Example 21, 1-[2-(3-chlorophenyl)-2-methoxy-propyl]-3-(cyclopentylmethyl)urea]
500 | COC(CNC(=O)NC1CC2CCC1C2)c1cccc(Cl)c1 (centres unmarked) [Example 4, 1-[2-(3-chlorophenyl)-2-methoxy-ethyl]-3-norbornan-2-yl-urea]
410 | O=C(NCC1(c2ccnc(OC(F)F)c2)CCO1)[C@H]1C[C@@H]1c1ccccc1 (stereo partly drawn) [Example 67, (1S,2S)-N-[[2-[2-(difluoromethoxy)-4-pyridyl]oxetan-2-yl]methyl]-2-phenyl-cyclopropanecarboxamide]
320 | O=C(NCC1CCCC1)NCC1(c2cccc(Cl)c2)CCO1 (centres unmarked) [Example 59, 1-[[2-(3-chlorophenyl)oxetan-2-yl]methyl]-3-(cyclopentylmethyl)urea]
130 | CO[C@@](C)(CNC(=O)C1CC12CCOCC2)c1cccc(Cl)c1 (stereo partly drawn) [Example 84, N-[(2R)-2-(3-chlorophenyl)-2-methoxy-propyl]-6-oxaspiro[2.5]octane-2-carboxamide]
